Legend:
Type in all cases: cell-based
H1299_eGFP cells [1] = experiment: siNG transfection and sequential adjuvant treatment, eGFP silencing by flow cytometry
H1299_WT cells [2] = experiment: Sphingomyelin detection with lysenin; settings: after siNG transfection
Description: Cell seeding, transfection and DL treatment of the H1299_WT cells occurred similar to the previous microscopy experiments. The subsequent staining procedure was carried out at room temperature. Following one washing step with PBS, the cells were fixed with 4% PFA during 15 minutes. The fixative was removed, the cells washed twice with PBS and permeabilized with 0.5% Tween 20 for 15 minutes. Next, the cells were washed twice with blocking buffer (BB, 2 wt % bovine serum albumin (Amresco, USA) in PBS) and kept in BB during 30 minutes. Upon removal, the cells were incubated 2 hours with a 1 μg/mL lysenin (Sigma-Aldrich, Belgium) solution in BB. Next the cells were washed twice with PBS before incubating 1 hour with the lysenin rabbit anti-human antiserum (1:500 in BB, Peptanova, Germany). Before and after the subsequent 1 hour incubation period with the secondary goat anti-rabbit Alexa Fluor 647 antibody (1:500 in BB, Molecular Probes™, Belgium), cells were washed with BB. Finally the cells were washed with PBS and stored at 4° C. covered with Vectashield containing DAPI. Using the 408 nm and 633 nm laser lines, the nuclei and sphingomyelin were excited respectively and detected with a LSCM and a 60× oil immersion objective.

H1299_eGFP cells [3] = experiment: siPLK1-NG silencing evaluated through cell viability (CellTiter GLO)
Description: (§1) The silencing potential of siPLK1-NGs was established through evaluating the cell viability. Hereto, we applied the CellTiter GLO® assay (Promega, Belgium) according to the manufacturer's guidelines. Before initiating the assay, the culture plates and reconstituted assay buffer were placed at room temperature for 30 minutes. Next, the culture medium was replaced by 250 μL fresh cell medium and an equal volume of assay buffer was added. To induce complete cell lysis, the plates were shaken during 2 minutes and the signal was allowed to stabilize the following 10 minutes. 100 μL from each well was subsequently transferred to an opaque 96-well plate, which was measured with a GloMax® 96 Microplate Luminometer (Promega, Belgium). Three biological replicates were performed and data are expressed as the mean cell viability±SEM.
All previous experiments were performed on the eGFP reporter gene. To evaluate whether our approach also works in a therapeutic setting we applied siRNA against Polo Like Kinase 1 (PLK1). […] To evaluate the PLK1 silencing we evaluated the effect on cell viability since both induction of cell cycle arrest or apoptosis would reduce the number of cells present compared to the untreated control.

H1299_WT cells [4] = experiment: Phospholipidosis detection with LipidTOX Red; settings: 20 h incubation
Description: H1299_WT cells were seeded and allowed to settle overnight as detailed previously. Next, the cells were incubated with a mixture of a 1/1000 dilution of the LipidTOX™ red phospholipidosis detection reagent (Thermo Fisher Scientific, USA) and the desired CAD in complete cell medium. Upon 20 hour incubation, the cells were fixed with 4% PFA and stored at 4° C. covered in Vectashield antifade mounting medium containing DAPI. Imaging occurred with a LSCM and a 100× oil immersion objective. DAPI and the LipidTOX™ red phospholipidosis dye were respectively excited with the 408 nm and 561 nm laser lines and the signal intensity was determined with Image J in minimum 30 cells from 5 images per condition.

H1299_WT cells [5] = experiment: Release of FITC-dextrans into the cytosol (confocal microscopy); settings: 40 μM, 20 h, 10 kDa FITC-dextran; listed as DL
Description: (§2) To visualize the FITC-dextran release, a 1 mg/mL dispersion of 10 kDa FITC-dextrans (Sigma-Aldrich, Belgium) in complete cell medium was added during 1 hour at 37° C. in a humidified atmosphere containing 5% CO2. To assess oligonucleotide escape, the NGs were first loaded with 100 nM Alexa Fluor 647-labeled oligonucleotides (21-mer) (Eurogentec, Belgium) according to the procedure described for siRNA complexation. Of note, these oligonucleotides transfer to the nucleus upon release into the cytosol (Rehman et al., ACS Nano, 2013). Following four hours of NG transfection or 1 h incubation with FITC-dextrans, the cells were washed with PBS and received 1.5 mL fresh cell medium with or without 10, 20 or 40 μM DL. After an additional incubation period of 20 hours, the cell medium was removed and nuclei were labeled with Hoechst (Molecular Probes™, Belgium) in cell medium during 15 minutes at 37° C. […]
(§3) The samples were imaged using a laser scanning confocal microscope (LSCM, C1si, Nikon) and a 60× oil immersion Plan Apo objective (Nikon, Belgium). […] During data analysis with the ImageJ image processing software (NIH) both the total cell number and amount of cells with a diffuse FITC-dextran labeling or oligonucleotide-positive nuclei were counted. […]

H1299_eGFP cells [6] = experiment: Side scatter (cellular granularity) by flow cytometry
Description: For silencing experiments, H1299_eGFP cells were seeded in 24 well plates at a density of 35000 cells/well and were allowed to settle overnight. Subsequently, the cells were transfected and treated with small molecular adjuvants as described previously. Note that for every siEGFP or siPLK1 condition an siCTRL sample was included to account for potential off target effects. SiNG-mediated eGFP silencing was determined by flow cytometry. […] The cells were collected, centrifuged during 5 minutes at 300 g, resuspended in 300 μL flow buffer and kept on ice until analysis. For each sample the forward and side scatter as well as the green fluorescent signal were measured for at least 5000 cells.

H1299_WT cells [7] = experiment: Release of NG-delivered labeled oligonucleotides into the cytosol (positive nuclei); settings: 40 μM, 20 h, after NG transfection; listed as DL
Description: as §2, §3

H1299_eGFP cells [8] = experiment: Cell viability following CAD incubation (CellTiter GLO)
Description: as §1
Please note that we only applied siCTRL-loaded NGs in this set of experiments. With the interest of evaluating the possible effect of our treatment on cell viability, the CellTiter GLO® assay was performed as described above. Again, three biological replicates were performed and data are expressed as the mean±SEM.

Clc1ccc2c(c1)CCc1cccnc1C2=C1CCNCC1 [(3) Desloratadine, Desloratadine]
siNG-mediated gene silencing, 2 h versus 20 h incubation (H1299_eGFP cells [1]; incubation 2 h or 20 h): improve siNG-mediated gene silencing to a similar extent
adjuvant effect on siNG-mediated eGFP silencing (H1299_eGFP cells [1]; sequential treatment 10, 20 or 40 μM, 20 h, siNGs 2 nM siRNA): significant additional silencing
sphingomyelin (lysenin) signal (H1299_WT cells [2]): signal increases as a function of the desloratadine concentration
cell viability (H1299_eGFP cells [3]; 1 nM siPLK1-NG, second 40 μM treatment): ~50%
viability at 40 µM (H1299_eGFP cells [3]; 1 nM siPLK1-NG, single 40 μM treatment, 2 h): ~60%
effect on cell viability reduction (H1299_eGFP cells [3]; 10 nM siPLK1-NG, single 2-hour treatment): maximal effect on cell viability reduction
LipidTOX Red phospholipid signal (H1299_WT cells [4]): upregulates the presence of phospholipids in a concentration dependent fashion
Cells with diffuse FITC-dextran labeling (H1299_WT cells [5]): 26%
cellular granularity (SSC) at eGFP readout (H1299_eGFP cells [6]; 40 μM, 2 h incubation): significant though minor augmentation
increase in SSC signal (H1299_eGFP cells [6]; siNG transfection then 40 μM): 1.8 fold
Oligonucleotide positive nuclei (H1299_WT cells [7]): 30%
additional cytotoxicity compared to siNGs alone (H1299_eGFP cells [8]): did not cause any additional cytotoxicity
transfected cells remaining viable (H1299_eGFP cells [8]; human, 20 h, 40 μM): ~60%

— patent publication US11033572B2, “Molecular adjuvants for enhanced cytosolic delivery of active agents” (Universiteit Gent, priority 2017, dated 2021)
